Reference: patent US4921850A, “3-propenylcephem derivative” (Eisai Co., Ltd., priority 1986, dated 1990)
≈ marks a conversion by molar mass, not a printed value. Read-outs that look alike come from different tables or passages of the source.

Key:
Assay in all cases: Anti-bacterial activity (MIC), agar dilution
Assay type in all cases: cell-based
Escher. coli NIHJ = settings: Escher. coli NIHJ, agar dilution, about 10^6 CFU/ml, 18 hours, 37° C.
Description: (§1) MIC (μg/ml) were determined by an agar dilution method [Chemotherapy (Japan), 29, 76-79, 1981]. Overnight cultures of the bacterial strains in Mueller-Hinton broth were diluted to final concentration of about 10^6 CFU/ml, and 5 μl of each bacterial suspension was spotted onto Mueller-Hinton agar plates that contained twofold serial dilutions of antibiotics. MICs were measured after incubation for 18 hours at 37° C.

Kleb. pneumoniae EK-6 = settings: Kleb. pneumoniae EK-6, agar dilution, about 10^6 CFU/ml, 18 hours, 37° C.
Description: as §1

[1] = tested on: Morganella morganii EP-14; settings: about 10^6 CFU/ml, 37° C.
Description: as §1

Pseud. aeruginosa EP-01 = settings: Pseud. aeruginosa EP-01, agar dilution, about 10^6 CFU/ml, 18 hours, 37° C.
Description: as §1

Ser. marcescens ES-75 = settings: Ser. marcescens ES-75, agar dilution, about 10^6 CFU/ml, 18 hours, 37° C.
Description: as §1

Staph. aureus 209-P = settings: Staph. aureus 209-P, agar dilution, about 10^6 CFU/ml, 18 hours, 37° C.
Description: as §1

[2] = Escherichia coli, 18 h, read-out: MIC
[3] = Klebsiella pneumoniae, EK6, 18 h, read-out: MIC
[4] = Morganella morganii, EP14, 18 h, read-out: MIC
[5] = Pseudomonas aeruginosa, EP01, 18 h, read-out: MIC
[6] = Serratia marcescens, ES75, 18 h, read-out: MIC
[7] = Staphylococcus aureus, 209P, 18 h, read-out: MIC

| Compound | MIC (Escher. coli NIHJ; [2]) | MIC (Kleb. pneumoniae EK-6; [3]) | MIC [1, 4] | MIC (Pseud. aeruginosa EP-01; [5]) | MIC (Ser. marcescens ES-75; [6]) | MIC (Staph. aureus 209-P; [7]) | MIC (Escher. coli NIHJ) | MIC (Kleb. pneumoniae EK-6) | MIC ([1]; 18 hours) | MIC (Pseud. aeruginosa EP-01) | MIC (Ser. marcescens ES-75) | MIC (Staph. aureus 209-P) |
| --- | --- | --- | --- | --- | --- | --- | --- | --- | --- | --- | --- | --- |
| CC(=O)NCC[N+](C/C=C/C1=C(C(=O)[O-])N2C(=O)[C@@H](NC(=O)/C(=N\OCF)c3nsc(N)n3)[C@H]2SC1)(CCO)CCO [Example 51] | 0.05 µg/mL (≈ 0.0793 µM) | 0.05 µg/mL (≈ 0.0793 µM) | 0.05 µg/mL (≈ 0.0793 µM) | 1.56 µg/mL (≈ 2.47 µM) | 0.05 µg/mL (≈ 0.0793 µM) | 0.4 µg/mL (≈ 0.634 µM) | – | – | – | – | – | – |
| C[N+](C)(C/C=C/C1=C(C(=O)[O-])N2C(=O)[C@@H](NC(=O)/C(=N\OCF)c3nsc(N)n3)[C@H]2SC1)NC(N)=O [Example 53] | 0.05 µg/mL (≈ 0.092 µM) | 0.05 µg/mL (≈ 0.092 µM) | 0.05 µg/mL (≈ 0.092 µM) | 0.8 µg/mL (≈ 1.47 µM) | 0.1 µg/mL (≈ 0.184 µM) | 0.8 µg/mL (≈ 1.47 µM) | – | – | – | – | – | – |
| CNC(=O)C[N+](C)(C)C/C=C/C1=C(C(=O)[O-])N2C(=O)[C@@H](NC(=O)/C(=N\OCF)c3nsc(N)n3)[C@H]2SC1 [Example 55] | ≤ 0.025 µg/mL | ≤ 0.025 µg/mL | ≤ 0.025 µg/mL | 0.4 µg/mL (≈ 0.719 µM) | ≤ 0.025 µg/mL | 0.2 µg/mL (≈ 0.359 µM) | – | – | – | – | – | – |
| CN(C)C(=O)C[N+](C)(C)C/C=C/C1=C(C(=O)[O-])N2C(=O)[C@@H](NC(=O)/C(=N\OCF)c3nsc(N)n3)[C@H]2SC1 [Example 56] | 0.05 µg/mL (≈ 0.0876 µM) | 0.05 µg/mL (≈ 0.0876 µM) | 0.05 µg/mL (≈ 0.0876 µM) | 1.56 µg/mL (≈ 2.73 µM) | 0.1 µg/mL (≈ 0.175 µM) | 0.4 µg/mL (≈ 0.701 µM) | – | – | – | – | – | – |
| CNC(=O)[C@H](C)[N+](C)(C)C/C=C/C1=C(C(=O)[O-])N2C(=O)[C@@H](NC(=O)/C(=N\OCF)c3nsc(N)n3)[C@H]2SC1 [Example 58] | ≤ 0.025 µg/mL | 0.05 µg/mL (≈ 0.0876 µM) | 0.05 µg/mL (≈ 0.0876 µM) | 1.56 µg/mL (≈ 2.73 µM) | 0.05 µg/mL (≈ 0.0876 µM) | 0.2 µg/mL (≈ 0.35 µM) | – | – | – | – | – | – |
| CNC(=O)[C@@H](C)[N+](C)(C)C/C=C/C1=C(C(=O)[O-])N2C(=O)[C@@H](NC(=O)/C(=N\OCF)c3nsc(N)n3)[C@H]2SC1 [Example 59] | ≤ 0.025 µg/mL | ≤ 0.025 µg/mL | ≤ 0.025 µg/mL | 1.56 µg/mL (≈ 2.73 µM) | ≤ 0.025 µg/mL | 0.4 µg/mL (≈ 0.701 µM) | – | – | – | – | – | – |

Now from value to compound:

| MIC (Escher. coli NIHJ; [2]) | MIC (Kleb. pneumoniae EK-6; [3]) | MIC [1, 4] | MIC (Pseud. aeruginosa EP-01; [5]) | MIC (Ser. marcescens ES-75; [6]) | MIC (Staph. aureus 209-P; [7]) | MIC (Escher. coli NIHJ) | MIC (Kleb. pneumoniae EK-6) | MIC ([1]; 18 hours) | MIC (Pseud. aeruginosa EP-01) | MIC (Ser. marcescens ES-75) | MIC (Staph. aureus 209-P) | Compound |
| --- | --- | --- | --- | --- | --- | --- | --- | --- | --- | --- | --- | --- |
| ≤ 0.025 µg/mL | 0.05 µg/mL (≈ 0.0834 µM) | ≤ 0.025 µg/mL | 1.56 µg/mL (≈ 2.6 µM) | ≤ 0.025 µg/mL | 0.2 µg/mL (≈ 0.334 µM) | – | – | – | – | – | – | C[N+](C)(C/C=C/C1=C(C(=O)[O-])N2C(=O)[C@@H](NC(=O)/C(=N\OCF)c3nsc(N)n3)[C@H]2SC1)[C@@H](CC(N)=O)C(N)=O [Example 60] |
| 0.1 µg/mL (≈ 0.167 µM) | 0.05 µg/mL (≈ 0.0834 µM) | 0.1 µg/mL (≈ 0.167 µM) | 1.56 µg/mL (≈ 2.6 µM) | 0.05 µg/mL (≈ 0.0834 µM) | 0.4 µg/mL (≈ 0.667 µM) | – | – | – | – | – | – | C[N+](C)(C/C=C/C1=C(C(=O)[O-])N2C(=O)[C@@H](NC(=O)/C(=N\OCF)c3nsc(N)n3)[C@H]2SC1)[C@H](CC(N)=O)C(N)=O [Example 61] |
| ≤ 0.025 µg/mL | ≤ 0.025 µg/mL | ≤ 0.025 µg/mL | 0.4 µg/mL (≈ 0.699 µM) | ≤ 0.025 µg/mL | 0.2 µg/mL (≈ 0.349 µM) | – | – | – | – | – | – | C[N+](C)(C/C=C/C1=C(C(=O)[O-])N2C(=O)[C@@H](NC(=O)/C(=N\OCF)c3nsc(N)n3)[C@H]2SC1)[C@@H](CO)C(N)=O [Example 62] |
| ≤ 0.025 µg/mL | 0.05 µg/mL (≈ 0.083 µM) | ≤ 0.025 µg/mL | 0.8 µg/mL (≈ 1.33 µM) | ≤ 0.025 µg/mL | 0.4 µg/mL (≈ 0.664 µM) | – | – | – | – | – | – | C[N+](C)(C/C=C/C1=C(C(=O)[O-])N2C(=O)[C@@H](NC(=O)/C(=N\OCF)c3nsc(N)n3)[C@H]2SC1)[C@H](CO)C(=O)NCO [Example 63] |
| ≤ 0.025 µg/mL | ≤ 0.025 µg/mL | ≤ 0.025 µg/mL | 0.8 µg/mL (≈ 1.51 µM) | 0.1 µg/mL (≈ 0.189 µM) | 0.2 µg/mL (≈ 0.378 µM) | – | – | – | – | – | – | C[N+](C)(C/C=C/C1=C(C(=O)[O-])N2C(=O)[C@@H](NC(=O)/C(=N\OCF)c3nsc(N)n3)[C@H]2SC1)CCO [Example 64] |
| ≤ 0.025 µg/mL | ≤ 0.025 µg/mL | ≤ 0.025 µg/mL | 0.8 µg/mL (≈ 1.47 µM) | 0.05 µg/mL (≈ 0.092 µM) | 0.4 µg/mL (≈ 0.736 µM) | – | – | – | – | – | – | CC(O)C[N+](C)(C)CC=CC1=C(C(=O)[O-])N2C(=O)C(NC(=O)C(=NOCF)c3nsc(N)n3)C2SC1 (stereo not drawn) [Example 65] |
| – | – | – | – | – | – | ≤ 0.025 µg/mL | ≤ 0.025 µg/mL | ≤ 0.025 µg/mL | 0.8 µg/mL (≈ 1.47 µM) | ≤ 0.025 µg/mL | 0.4 µg/mL (≈ 0.736 µM) | CC(O)C[N+](C)(C)CC=CC1=C(C(=O)[O-])N2C(=O)C(NC(=O)C(=NOCF)c3nsc(N)n3)C2SC1 (stereo not drawn) [Example 66] |
| ≤ 0.025 µg/mL | ≤ 0.025 µg/mL | ≤ 0.025 µg/mL | 0.8 µg/mL (≈ 1.47 µM) | ≤ 0.025 µg/mL | 0.2 µg/mL (≈ 0.368 µM) | – | – | – | – | – | – | C[C@H](CO)[N+](C)(C)C/C=C/C1=C(C(=O)[O-])N2C(=O)[C@@H](NC(=O)/C(=N\OCF)c3nsc(N)n3)[C@H]2SC1 [Example 68] |
